Marks after values point to notes of the source that are not given here.
What was measured:
[1] = tested on: citric acid induced cough; assay: Citric acid induced cough in conscious guinea pigs; details: for Mean ± sem cumulative coughs / ≧15 Cumulative coughs/total number of guinea pigs: potentially synergistic agents; for Effect of single agent on citric acid (0.01-0.3M) induced cough: oral, 60 minutes prior, memantine 3, guaifenesin 100, diphenhydramine 10, benzonatate 30, ambroxol 100 mg/kg; for Effect on cumulative number of coughs evoked by lower concentrations of citric acid (0.01-0.1 M): 30 mg/kg; for Cumulative numbers of cough, median, citric acid 0.01M / Cumulative numbers of cough, median, citric acid 0.1M / Cumulative numbers of cough, median, citric acid 0.3M / Effect on cumulative number of coughs evoked by citric acid (0.01-0.3M) compared to controls: 30 mg/kg intraperitoneally
Experimental: Male Hartley guinea pigs (200-700 g) were studied and all experiments were first approved by the institutional Animal Care and Use Committee.
Animals were placed in a transparent chamber (Buxco Research Systems, Wilmington, N.C.) with a continuous flow of air and exposed to increasing concentrations of citric acid (0.01 M-0.3 M) is delivered by an ultrasonic nebulizer generating aerosol particles of 3-6 μm diameter. Coughs were counted during a 5 minute nebulization period and over the subsequent 5 minutes with the assistance of sound and pressure monitoring from the chamber. Respiratory rate and tidal volume were monitored throughout via a calibrated pressure transducer (Emka Technologies, Falls Church, Va.).
Each of these drugs was administered orally in half-log increments (e.g. 3 mg/kg, 10 mg/kg, 30 mg/kg) in an unpaired experimental design (each animal received only 1 dose of drug). The drugs were administered 60 minutes prior to citric acid challenge, which consisted of 5 minute challenges with aerosols of increasing concentrations of citric acid (0.01-0.3M), with 5 minute intervals in between escalating doses of the tussive stimulus.

[2] = tested on: citric acid evoked coughing; assay: Microinjection of NMDA receptor antagonists into the central termination sites of the cough receptors; assay type: in vivo, guinea pig; details: anesthetized guinea pigs
[3] = tested on: Caco-2 cells; assay: Memantine in vitro intestinal permeability (Caco-2 cells); assay type: in vitro ADME; details: FIG. 12
[4] = Sedation and side effects observed in the cough studies; details: for Sedation (FIG. 20): 30 mg/kg intraperitoneally; for Animals with mild to moderate sedation: n=8; for Sedation: 50 mg/kg, precluded assessment of cough
[5] = Respiratory parameters during cough challenge; assay type: in vivo, guinea pig; details: 50 mg/kg; controls 117.7(±26.3)
Experimental: Using a similar chamber and nebulizer system, animals were treated first with aerosolized peptidase inhibitors (captopril 0.1 μM and thiorphan 0.1 μM, 5 minutes nebulization) to reduce bradykinin degradation and enhance tussive responses evoked by bradykinin (unpublished observations). Animals were then exposed to increasing concentrations of aerosolized bradykinin (0.1-3 mg/mL), again for 5 minute periods. Coughs are counted during this and the subsequent 5 minutes. Pressure changes within the chamber are used to monitor respiratory rate (Biopac Systems Inc, Goleta, Calif.).

[6] = tested on: cough; details: cited from earlier work
[7] = tested on: freezing behavior during cued fear conditioning; assay: Cued fear conditioning in mice; assay type: in vivo; details: diphenhydramine 20 mg/kg IP, p=0.061
Experimental: The effects of memantine on enhancing cognition were investigated with fear conditioning tests on mice. Specifically, the fear conditioning test exposed mice to a conditioned stimulus (a tone) and an unconditioned stimulus (a mild electric shock). The mice learned to associate the tone with the shock as reflected by freezing. After being adequately conditioned, the mice were administered memantine or a control (vehicle alone). […] Fear Conditioning: Fear conditioning mouse chambers (7''W×7''D×12''H; Coulbourne Instruments, […] Valley, Pa.) were housed in sound attenuating chambers. A camera was mounted on the ceiling of the chamber to capture mouse behavior (FreezeFrame software, Coulbourne Instruments, […] Valley, Pa.); data were analyzed by Freezeview software (Coulbourne Instruments, […] Valley, Pa.). Fear conditioning chambers were calibrated prior to each experiment to ensure that each chamber delivers the same shock intensity. […] Pavlovian fear conditioning refers to the learning of associations between a negative reinforcer (e.g., a mild electric foot shock/s), a novel context (e.g. a context) and/or a specific, neutral, cue (e.g., tone or white noise). To assess contextual and cued (tone) learning and memory, a standardized fear conditioning task developed for the evaluation of memory in rodents was used. Protocol: […] Cue-induced Conditioning Testing: Mice were tested for cued memory 48 hours after training. The cued conditioning test was conducted in an altered context (i.e., a different test chamber). […] Statistical Analysis: Data are represented as the mean and standard error to the mean. Data were analyzed by analysis of variance (ANOVA) followed by Fisher PLSD, or unpaired t-tests, when appropriate to test a planned comparison. An effect was considered significant if p<0.05. Statistical outliers that fell above or below two standard deviations from the mean were removed from the final analysis.

[8] = in vivo, po; cited from earlier work

SMILES: CCCCNc1ccc(C(=O)OCCOCCOCCOCCOCCOCCOCCOCCOCCOC)cc1 [Benzonatate]
- Mean ± sem cumulative coughs ([1]; 10 mg/kg po): 24 ± 4
- ≧15 Cumulative coughs/total number of guinea pigs ([1]; 10 mg/kg po): 3/3
- Mean ± sem cumulative coughs ([1]; 30 mg/kg po): 13 ± 4
- ≧15 Cumulative coughs/total number of guinea pigs ([1]; 30 mg/kg po): 2/5
- Effect of single agent on citric acid (0.01-0.3M) induced cough [1]: failed to inhibit cough

SMILES: NC(CCCP(=O)(O)O)C(=O)O (stereo not shown) [AP5]
- Effect of microinjection on citric acid evoked coughing [2]: prevents citric acid evoked coughing

SMILES: CC(O)CO (stereo not shown) [propylene glycol]
- Effect as permeation enhancer on memantine Caco-2 permeability [3]: ineffective

SMILES: COc1ccc2c(c1)[C@]13CCCC[C@@H]1[C@H](C2)N(C)CC3 [Dextromethorphan]
- Effect on cumulative number of coughs evoked by lower concentrations of citric acid (0.01-0.1 M) [1]: significantly reduced the cumulative number of coughs
- Cumulative numbers of cough, median, citric acid 0.01M [1]: 0.0
- Cumulative numbers of cough, median, citric acid 0.1M [1]: 0.5*
- Cumulative numbers of cough, median, citric acid 0.3M [1]: 7.5
- Effect on cumulative number of coughs evoked by citric acid (0.01-0.3M) compared to controls [1]: failed to produce a statistically significant reduction in cumulative coughs
- Sedation (FIG. 20) [4]: moderate to severe sedation in the majority of animals studied
- Animals with mild to moderate sedation ([4]; 30 mg/kg): 62.5%
- Duration of sedation ([4]; 30 mg/kg, persisted throughout the citric acid challenge): > 2 h
- Sedation [4]: severe sedation
- mean breathing frequency [5]: 90.0(±13.7) breaths/min
- Efficacy in cough associated with upper respiratory tract infections ([6]; Bolser 2006): ineffective
- Effect of microinjection on citric acid evoked coughing [2]: prevents citric acid evoked coughing

SMILES: Nc1c(Br)cc(Br)cc1CN[C@H]1CC[C@H](O)CC1 [Ambroxol]
- Mean ± sem cumulative coughs ([1]; 100 mg/kg po): 13 ± 4
- ≧15 Cumulative coughs/total number of guinea pigs ([1]; 100 mg/kg po): 2/6
- Effect of single agent on citric acid (0.01-0.3M) induced cough [1]: failed to inhibit cough

SMILES: CN(C)CCOC(c1ccccc1)c1ccccc1 [Diphenhydramine]
- cue-induced fear conditioning, CS phase, vs vehicle-vehicle [7]: strong trend toward decreased cue-induced fear conditioning

SMILES: Cc1ccc(-c2nc3ccc(C)cn3c2CC(=O)N(C)C)cc1 [zolpidem]
- orally bioavailable [8]: less than 70%

SMILES: CCCCCCCC/C=C\CCCCCCCC(=O)O [oleic acid]
- Effect as permeation enhancer on memantine Caco-2 permeability [3]: ineffective

SMILES: CNC1(c2ccccc2Cl)CCCCC1=O (stereo not shown) [Ketamine]
- Effect on cumulative number of coughs evoked by lower concentrations of citric acid (0.01-0.1 M) [1]: not
- Cumulative numbers of cough, median, citric acid 0.01M [1]: 0.0
- Cumulative numbers of cough, median, citric acid 0.1M [1]: 1.5
- Cumulative numbers of cough, median, citric acid 0.3M [1]: 11.0
- Effect on cumulative number of coughs evoked by citric acid (0.01-0.3M) compared to controls [1]: failed to produce a statistically significant reduction in cumulative coughs
- Sedation (FIG. 20) [4]: moderate to severe sedation in the majority of animals studied
- Time at which sedation reversed ([4]; 30 mg/kg, during the cough challenge): 40-50 minutes post-injection
- Animals with mild to moderate sedation ([4]; 30 mg/kg): 87.5%
- Sedation [4]: severe sedation
- mean breathing frequency [5]: 92.3(±18.8) breaths/min
- Efficacy in chronic cough patients ([6]; Young et al.): ineffective

SMILES: CC1CCC(C(C)C)C(O)C1 (stereo not shown) [Menthol]
- Mean ± sem cumulative coughs ([1]; 30 mg/kg po): 21 ± 3
- ≧15 Cumulative coughs/total number of guinea pigs ([1]; 30 mg/kg po): 3/3
- Mean ± sem cumulative coughs ([1]; 100 mg/kg po): 11±2
- ≧15 Cumulative coughs/total number of guinea pigs ([1]; 100 mg/kg po): 1/7

SMILES: COc1ccccc1OCC(O)CO (stereo not shown) [Guaifenesin, 3-(2-methoxyphenoxy)-1,2-propanediol]
- Mean ± sem cumulative coughs ([1]; 50 mg/kg po): 30 ± 1
- ≧15 Cumulative coughs/total number of guinea pigs ([1]; 50 mg/kg po): 3/3
- Mean ± sem cumulative coughs ([1]; 100 mg/kg po): 20 ± 5
- ≧15 Cumulative coughs/total number of guinea pigs ([1]; 100 mg/kg po): 3/4
- Effect of single agent on citric acid (0.01-0.3M) induced cough [1]: failed to inhibit cough

SMILES: N[C@@H](Cc1cc(CP(=O)(O)O)cc(-c2ccccc2Cl)c1)C(=O)O [SDZ220581]
- Effect of microinjection on citric acid evoked coughing [2]: prevents citric acid evoked coughing

— patent US8501816B2, “Antitussive compositions comprising memantine” (Cerecor, Inc., priority 2010, dated 2013)
